Source: patent publication US6716596B2, “Agents for replacement of NAD+/NADH system in enzymatic reactions” (The Regents of the University of California, priority 2001, dated 2004)

Columns and labels:
[1] = molecular target: T1, horse liver alcohol dehydrogenase (HLADH) (Equus caballus, UniProt P00327); test: HLADH enzymatic chiral reduction of ketones with biomimic co-factor regeneration; assay type: biochemical
T1 construct: purchased Sigma
Experimental: FIG. 7 presents structures of ketone substrates 12-15 used for biomimic chiral synthesis of corresponding alcohols. Conversion of the substrates 12-15 to their corresponding alcohols are expressed in % yield, and TOF in d^−1 and S-enantiomer excess (ee) are also shown for each conversion. Corresponding values obtained with NAD^+ are given in parenthesis. The S-enantiomeric excess (ee) was determined by GLC with a modified β-cyclodextrin capillary column.
[Cp*Rh(bpy)(H2O)]OTf2 (1.9 mg, 2.61×10^−3 mmol), sodium formate (17.8 mg, 261.69×10^−3 mmol), NAD^+ (8.1 mg, 11.23×10^−3 mmol) and HLADH (10 units) were placed in a 10 mL Schlenk flask, and Schlenk techniques were followed to deoxygenate the solid mixture.
Under positive argon pressure, 5 mL of potassium phosphate buffer (100 mM, pH=7.02, deoxygenated) and carbonyl substrate (83.58×10^−3 mmol, deoxygenated) were added via syringe. The reaction flask was immediately securely capped with a glass-stopper and shaken with a shaker in 30° C. water-bath. The reaction was monitored by gas chromatography (GC), equipped with a β-cyclodextrin column (Supelco, β-DEX-225), and the products were identified by comparing the retention time with the corresponding authentic chiral samples and were confirmed by GC-MS. The enantiomeric excess of the products was determined directly by their relative area in the chromatogram. The progress of the reaction was obtained by mixing the reaction aliquot with an internal standard (cyclohexanol in phosphate buffer), and then calibrating the measured relative area in the chromatogram with their corresponding response factors. The reaction was monitored for 24 hours.
The same procedure as described in section A was followed, except that NAD^+ was substituted with any one of the biomimic compounds of the invention.

[2] = water solubility of biomimics

T1 sequence (P00327 2-375 limits assumed): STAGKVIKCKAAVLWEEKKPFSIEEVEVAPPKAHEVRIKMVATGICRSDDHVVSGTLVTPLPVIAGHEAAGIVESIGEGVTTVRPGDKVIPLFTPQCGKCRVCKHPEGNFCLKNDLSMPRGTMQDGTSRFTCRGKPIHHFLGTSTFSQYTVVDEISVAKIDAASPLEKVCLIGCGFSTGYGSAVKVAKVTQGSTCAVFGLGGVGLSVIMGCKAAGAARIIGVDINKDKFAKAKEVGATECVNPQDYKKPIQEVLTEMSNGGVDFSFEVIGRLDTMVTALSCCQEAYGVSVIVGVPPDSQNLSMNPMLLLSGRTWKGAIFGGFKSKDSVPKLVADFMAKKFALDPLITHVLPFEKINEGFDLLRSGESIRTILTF

Row | Compound | recognition by HLADH as hydride catalyst of the chiral conversion [1] | water solubility [2]
1 | COP(=O)(O)OC[C@H]1O[C@@H](N2C=CCC(C(N)=O)=C2)[C@H](O)[C@@H]1O [Compound 7, β-1,4-dihydronicotinamide ribose-5′-methyl phosphate] | recognizes | completely water soluble
2 | C=CC(=O)OCCOCCOCC(=O)[n+]1cccc(C(N)=O)c1.[Br-] [Compound 10, 1-(8-acryloyloxy-3,6-dioxaoctanoyl)-3-carbamoylpyridinium bromide] |  | both water and organic solvent soluble
